Tests used:
[1] = molecular target: FGFR1 (h) (Homo sapiens, UniProt P11362); experiment: FGFR1 (enzymatic assay), TR-FRET; type: biochemical; details: FGFR 1 pIC50, 5 μM ATP, 60 min; pIC50 = -log IC50 (M); average if tested multiple times
[2] = molecular target: T1, Ba/F3-KDR-transfected cells (Homo sapiens, UniProt P35968, cells depend on it, form not given); experiment: Ba/F3-KDR (minus IL3 or plus IL3) cellular proliferation assay, Alamar Blue; type: cell-based; details: minus IL3; 24 hours, Alamar Blue
T1 construct: BAF3-KDR (MIN IL3 Alamar Blue pIC50); other: minus IL3; 24 hours, Alamar Blue
T1 sequence (P35968 whole entry, change not shown): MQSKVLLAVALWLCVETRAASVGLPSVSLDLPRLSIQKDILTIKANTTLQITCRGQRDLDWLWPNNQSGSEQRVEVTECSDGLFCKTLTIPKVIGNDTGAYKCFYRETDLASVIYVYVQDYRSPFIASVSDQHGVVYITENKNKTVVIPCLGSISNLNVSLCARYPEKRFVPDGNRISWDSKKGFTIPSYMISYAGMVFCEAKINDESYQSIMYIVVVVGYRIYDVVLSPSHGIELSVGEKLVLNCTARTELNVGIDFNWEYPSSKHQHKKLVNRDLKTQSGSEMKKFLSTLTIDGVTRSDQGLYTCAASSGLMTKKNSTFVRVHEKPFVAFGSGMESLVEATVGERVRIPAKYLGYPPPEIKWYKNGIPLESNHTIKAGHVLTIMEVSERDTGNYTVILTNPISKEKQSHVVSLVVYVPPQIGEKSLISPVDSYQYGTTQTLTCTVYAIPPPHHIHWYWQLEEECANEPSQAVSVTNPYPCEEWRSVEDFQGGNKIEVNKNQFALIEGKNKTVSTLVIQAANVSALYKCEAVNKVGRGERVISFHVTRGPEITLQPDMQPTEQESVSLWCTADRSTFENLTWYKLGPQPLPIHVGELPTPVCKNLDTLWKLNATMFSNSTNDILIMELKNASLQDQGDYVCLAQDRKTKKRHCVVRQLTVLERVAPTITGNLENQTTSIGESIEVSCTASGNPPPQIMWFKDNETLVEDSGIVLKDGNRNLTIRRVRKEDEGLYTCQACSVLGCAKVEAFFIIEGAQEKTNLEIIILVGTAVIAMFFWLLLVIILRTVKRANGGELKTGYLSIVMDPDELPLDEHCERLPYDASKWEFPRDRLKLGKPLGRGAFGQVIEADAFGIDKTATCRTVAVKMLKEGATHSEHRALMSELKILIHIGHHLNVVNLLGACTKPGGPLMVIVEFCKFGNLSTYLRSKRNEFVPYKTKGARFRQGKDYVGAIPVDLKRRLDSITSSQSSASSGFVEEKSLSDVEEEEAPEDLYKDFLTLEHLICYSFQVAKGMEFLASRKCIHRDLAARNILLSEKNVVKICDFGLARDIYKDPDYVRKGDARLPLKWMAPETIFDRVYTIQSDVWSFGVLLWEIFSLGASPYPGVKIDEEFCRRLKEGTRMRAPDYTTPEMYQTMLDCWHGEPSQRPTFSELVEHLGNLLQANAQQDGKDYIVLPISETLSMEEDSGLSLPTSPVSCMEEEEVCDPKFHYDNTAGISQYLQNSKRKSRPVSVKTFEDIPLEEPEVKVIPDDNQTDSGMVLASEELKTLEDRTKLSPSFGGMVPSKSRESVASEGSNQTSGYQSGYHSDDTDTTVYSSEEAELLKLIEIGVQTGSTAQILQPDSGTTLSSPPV
Procedure, shortened: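 Ba/F3-KDR cells, 20000 per well, exposed to compounds (10 μM to 0.1 nM) for 24 h at 37°C in RPMI/10% FBS, then Alamar Blue for 4 h; fluorescence ex 540/em 590 nm gives IC50 and pIC50. Counterscreen run with 10 ng/ml murine IL3.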

[3] = molecular target: FGFR2 (h) (Homo sapiens, UniProt P21802); experiment: FGFR2 (enzymatic assay), TR-FRET; type: biochemical; details: 0.4 μM ATP, 60 min; pIC50 = -log IC50 (M); average if tested multiple times; read-out: FGFR 2 pIC50 (converted)
FGFR2 (h), sequence (P21802 22-821): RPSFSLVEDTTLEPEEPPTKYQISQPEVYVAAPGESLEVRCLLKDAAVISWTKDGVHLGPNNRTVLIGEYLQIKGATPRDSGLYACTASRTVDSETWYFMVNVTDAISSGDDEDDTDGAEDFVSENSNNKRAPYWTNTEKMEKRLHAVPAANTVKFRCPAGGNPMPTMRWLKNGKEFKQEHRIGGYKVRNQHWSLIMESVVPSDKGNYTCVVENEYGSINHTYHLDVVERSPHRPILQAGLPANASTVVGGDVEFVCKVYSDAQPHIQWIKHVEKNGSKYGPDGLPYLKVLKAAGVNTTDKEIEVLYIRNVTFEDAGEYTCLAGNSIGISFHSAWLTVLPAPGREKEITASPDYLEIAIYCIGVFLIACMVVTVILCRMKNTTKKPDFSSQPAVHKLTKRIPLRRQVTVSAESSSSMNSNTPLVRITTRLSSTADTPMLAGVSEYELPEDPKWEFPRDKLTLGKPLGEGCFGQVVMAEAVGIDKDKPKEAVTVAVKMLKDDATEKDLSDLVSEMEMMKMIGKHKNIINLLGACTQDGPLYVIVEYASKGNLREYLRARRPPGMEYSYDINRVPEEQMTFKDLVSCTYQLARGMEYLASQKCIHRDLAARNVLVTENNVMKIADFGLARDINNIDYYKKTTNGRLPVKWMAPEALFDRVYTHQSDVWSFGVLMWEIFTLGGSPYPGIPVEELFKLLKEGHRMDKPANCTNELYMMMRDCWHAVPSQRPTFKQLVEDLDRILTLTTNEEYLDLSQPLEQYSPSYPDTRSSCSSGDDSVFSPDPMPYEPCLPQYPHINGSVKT

[4] = molecular target: T2, Ba/F3-Flt3-transfected cells (Homo sapiens, UniProt P36888, cells depend on it, form not given); experiment: Ba/F3-Flt3 (minus IL3 or plus IL3) cellular proliferation assay, Alamar Blue; type: cell-based; details: minus IL3, 24 hours
T2 construct: BAF3-FLT3 (MIN IL3 Alamar Blue pIC50); other: minus IL3; 24 hours, Alamar Blue
T2 sequence (P36888 1-993): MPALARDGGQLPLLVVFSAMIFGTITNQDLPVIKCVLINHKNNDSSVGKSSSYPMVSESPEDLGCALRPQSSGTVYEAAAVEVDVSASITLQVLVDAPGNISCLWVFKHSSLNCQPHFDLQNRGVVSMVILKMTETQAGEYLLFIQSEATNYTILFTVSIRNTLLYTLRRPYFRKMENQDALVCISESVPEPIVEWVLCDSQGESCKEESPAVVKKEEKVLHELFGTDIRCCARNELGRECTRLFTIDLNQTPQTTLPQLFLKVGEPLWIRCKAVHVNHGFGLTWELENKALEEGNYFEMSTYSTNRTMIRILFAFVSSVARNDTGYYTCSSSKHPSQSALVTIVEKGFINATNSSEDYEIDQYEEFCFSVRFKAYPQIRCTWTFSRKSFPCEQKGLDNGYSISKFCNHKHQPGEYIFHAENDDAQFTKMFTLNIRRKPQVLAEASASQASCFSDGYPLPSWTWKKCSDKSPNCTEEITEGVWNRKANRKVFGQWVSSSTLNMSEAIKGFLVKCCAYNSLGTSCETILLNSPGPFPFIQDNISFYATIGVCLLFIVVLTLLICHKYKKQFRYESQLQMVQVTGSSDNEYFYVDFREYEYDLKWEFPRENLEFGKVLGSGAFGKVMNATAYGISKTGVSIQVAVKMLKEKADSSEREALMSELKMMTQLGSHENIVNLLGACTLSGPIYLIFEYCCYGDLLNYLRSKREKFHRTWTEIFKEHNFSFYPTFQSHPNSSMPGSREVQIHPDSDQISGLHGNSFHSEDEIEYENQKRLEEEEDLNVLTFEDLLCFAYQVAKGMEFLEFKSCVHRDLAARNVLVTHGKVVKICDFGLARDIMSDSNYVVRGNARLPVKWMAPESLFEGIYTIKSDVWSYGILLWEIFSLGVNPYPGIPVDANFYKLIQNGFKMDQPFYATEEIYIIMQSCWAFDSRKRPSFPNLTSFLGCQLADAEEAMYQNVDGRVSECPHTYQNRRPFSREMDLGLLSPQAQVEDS
Experimental: Ba/F3-Flt3 (Minus IL3 or Plus IL3) (Cellular Proliferation Assay)
In a 384 well plate, 100 nl of compound dilution in DMSO was sprayed before adding 50 μl cell culture medium (phenol red free RPMI-1640, 10% FBS, 2 mM L-Glutamine and 50 μg/ml Gentamycin) containing 20000 cells per well of Ba/F3-Flt3-transfected cells. Cells were put in an incubator at 37° C. and 5% CO2. After 24 hours, 10 μl of Alamar Blue solution (0.5 mM K3Fe(CN)6, 0.5 mM K4Fe(CN)6, 0.15 mM Resazurin and 100 mM Phosphate Buffer) was added to the wells, incubated for 4 hours at 37° C. and 5% CO2 before RFU's (Relative Fluorescence Units) (ex. 540 nm., em. 590 nm.) were measured in a fluorescence plate reader.
In this assay, the inhibitory effect of different compound concentrations (range 10 μM to 0.1 nM) was determined and used to calculate an IC50 (M) and pIC50 (−log IC50) value. As a counterscreen the same experiment was performed in the presence of 10 ng/ml murine IL3.

[5] = molecular target: T3, Ba/F3-FGFR1-transfected cells (Homo sapiens, UniProt P11362, cells depend on it, form not given); experiment: Ba/F3-FGFR1 (minus IL3 or plus IL3) cellular proliferation assay, Alamar Blue; type: cell-based; details: minus IL3, 24 hours
T3 construct: other: minus IL3; 24 hours, Alamar Blue
T3 sequence (P11362 whole entry, change not shown): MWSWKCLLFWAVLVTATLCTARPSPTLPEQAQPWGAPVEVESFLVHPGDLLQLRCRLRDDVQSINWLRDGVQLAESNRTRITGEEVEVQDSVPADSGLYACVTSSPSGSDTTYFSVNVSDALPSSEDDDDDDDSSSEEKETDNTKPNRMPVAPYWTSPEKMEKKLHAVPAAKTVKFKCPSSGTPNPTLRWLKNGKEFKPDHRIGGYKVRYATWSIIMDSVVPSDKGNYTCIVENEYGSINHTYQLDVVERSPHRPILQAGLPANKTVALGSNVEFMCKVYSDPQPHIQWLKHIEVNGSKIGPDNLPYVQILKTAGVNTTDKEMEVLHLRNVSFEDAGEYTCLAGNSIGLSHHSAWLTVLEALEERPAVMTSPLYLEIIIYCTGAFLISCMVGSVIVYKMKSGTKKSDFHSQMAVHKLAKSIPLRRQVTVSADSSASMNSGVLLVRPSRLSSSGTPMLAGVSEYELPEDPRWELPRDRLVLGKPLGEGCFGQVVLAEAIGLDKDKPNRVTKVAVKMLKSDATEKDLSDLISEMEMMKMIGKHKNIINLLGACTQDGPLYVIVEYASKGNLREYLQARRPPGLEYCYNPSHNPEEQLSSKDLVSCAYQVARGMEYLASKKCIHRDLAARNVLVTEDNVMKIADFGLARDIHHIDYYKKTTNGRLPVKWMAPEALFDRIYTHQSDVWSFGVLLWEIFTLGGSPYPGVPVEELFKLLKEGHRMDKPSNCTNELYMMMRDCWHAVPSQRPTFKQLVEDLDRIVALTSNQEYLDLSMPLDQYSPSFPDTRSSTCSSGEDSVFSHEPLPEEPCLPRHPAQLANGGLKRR
Procedure, shortened: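 Ba/F3-FGFR1 cells (20000/well) were treated with compound (10 μM–0.1 nM) for 24 h at 37 °C. Alamar Blue was then added for 4 h, with fluorescence read at ex 540/em 590 nm to give IC50/pIC50. A counterscreen was run with 10 ng/ml murine IL3.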

FGFR1 (h), sequence (P11362 22-822): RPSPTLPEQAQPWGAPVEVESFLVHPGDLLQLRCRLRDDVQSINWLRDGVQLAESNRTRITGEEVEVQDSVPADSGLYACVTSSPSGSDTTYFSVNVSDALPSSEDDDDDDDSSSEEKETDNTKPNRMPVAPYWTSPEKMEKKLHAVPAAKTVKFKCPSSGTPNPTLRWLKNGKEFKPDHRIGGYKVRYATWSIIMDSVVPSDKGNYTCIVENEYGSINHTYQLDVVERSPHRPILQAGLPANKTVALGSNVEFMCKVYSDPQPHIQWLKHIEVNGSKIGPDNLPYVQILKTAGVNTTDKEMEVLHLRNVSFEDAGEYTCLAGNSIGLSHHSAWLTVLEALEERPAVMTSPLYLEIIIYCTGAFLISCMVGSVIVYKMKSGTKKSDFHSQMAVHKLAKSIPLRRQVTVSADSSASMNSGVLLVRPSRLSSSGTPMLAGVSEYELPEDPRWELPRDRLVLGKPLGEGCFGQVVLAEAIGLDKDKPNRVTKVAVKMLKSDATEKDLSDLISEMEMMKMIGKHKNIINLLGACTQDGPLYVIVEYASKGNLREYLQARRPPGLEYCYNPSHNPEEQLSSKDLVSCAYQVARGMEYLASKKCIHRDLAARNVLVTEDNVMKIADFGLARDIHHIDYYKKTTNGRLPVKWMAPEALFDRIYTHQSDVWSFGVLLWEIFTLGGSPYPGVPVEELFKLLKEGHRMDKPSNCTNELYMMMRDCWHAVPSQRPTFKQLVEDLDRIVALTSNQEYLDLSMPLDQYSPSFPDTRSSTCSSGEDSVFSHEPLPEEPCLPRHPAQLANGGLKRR

SMILES | IC50 [1] [M] | BAF3-KDR (MIN IL3 Alamar Blue pIC50) [2] | IC50 [3] [M] | BAF3-FLT3 (MIN IL3 Alamar Blue pIC50) [4] | BAF3-FGFR1 (MIN IL3 pIC50) [5]
COc1cc(OC)cc(N(Cc2ncc[nH]2)c2ccc3ncc(-c4cnn(C)c4)cc3c2)c1 [Compound 18] | 2.75e-09 | 5.01 | 2.51e-09 | <5 | 6.88
COc1cc(OC)cc(N(CCNC(C)C)c2ccc3ncc(-c4cnn(C5CCCCO5)c4)cc3c2)c1 (stereo not drawn) [Compound 22] | 1.2e-09 | 5.79 | 3.89e-09 | 5.22 | 7.85
COc1cc(OC)c(F)c(N(CC#Cc2ncccc2OC)c2ccc3ncc(-c4cnn(C)c4)cc3c2)c1 [Compound 26] | 4.79e-09 | 5.11 | 1.05e-08 | 5.16 | 7.95
COc1cccnc1C#CCN(c1ccc2ncc(-c3cnn(C)c3)cc2c1)c1c(F)c(OC)cc(OC)c1F [Compound 27] | 1.64e-09 | 5.335 | 5.62e-09 | <5 | 8.715
CNCCN(c1ccc2ncc(-c3cnn(C)c3)cc2c1)c1c(F)c(OC)cc(OC)c1F [Compound 43] | 1.07e-09 | 6.51 | 2.45e-09 | 5.24 | 8.68
COc1cc(OC)cc(N(CCCN2CCCC2CNS(=O)(=O)C(F)(F)F)c2ccc3ncc(-c4cnn(C)c4)cc3c2)c1 (stereo not drawn) [Compound 47] | 1.17e-09 | 6.44 | 3.89e-09 | 5.14 | ~8.03
COc1cc(OC)cc(N(Cc2ncc[nH]2)c2ccc3ncc(-c4ccncc4)cc3c2)c1 [Compound 57] | 2.82e-09 | <5 | 2.29e-09 | <5 | 6.75
COc1cc(OC)cc(N(Cc2ncc[nH]2)c2ccc3ncc(-c4cccnc4)cc3c2)c1 [Compound 59] | 4.68e-09 | <5 | 3.02e-09 | <5 | 6.36
COc1cc(Nc2ccc3ncc(-c4cnn(C5CCCCO5)c4)cc3c2)cc(OC)c1 (stereo not drawn) [Int. 8] | 9.55e-08 | <5 | 3.72e-08 | <5 | 5.29
